Earlier results as cited in patent US20250213469A1, “DOSAGE FORMS OF ACTIVE […] AGAINST VIRAL DISEASES IN DRY POWDER INHALER DEVICE FOR SYMPTOMS CAUSED BY COVID-19 AND OTHER VIRAL LUNG DISEASES” ([…] EGITIM D[…].S., priority 2022, published 2025).

Details: C3H/HeN mice, positron emission tomography; literature study of Bocan et al.

NC(=O)c1nc(F)c[nH]c1=O [[^18F] Favipiravir]
tissue retention (biodistribution) of the active substance: retained lowest in the lungs and the most in the kidney, liver and stomach
